Tests used:
BV2 cells [1] = experiment: Nitric oxide (NO) secretion analysis (Griess reagent) after LPS treatment; type: cell-based, mouse; conditions: LPS 2 hours, then VD 12 hours; all tested concentrations (up to 100 µM); compared to LPS-only group
Experimental: This evaluation example was conducted to assess the effect of VD on nitric oxide (NO) secretion. Nitric oxides such as NO are inflammatory mediators that increase during inflammatory responses or infection and serve as important indicators of inflammation severity. By determining whether VD can inhibit NO secretion, the anti-inflammatory effect of VD was evaluated. After stabilizing BV2 cells, the cells were treated with LPS for 2 hours, followed by the addition of VD and incubation for 12 hours. The supernatant was collected from the cultured cells and centrifuged at 5,000 rpm for 2 minutes at 4°C. The analysis was performed using a Griess reagent kit, and the concentration of nitric oxide was calculated by measuring absorbance at 540 nm.

TNF-α = experiment: Western blot of pro-inflammatory factors in LPS-treated cells; type: cell-based; conditions: compared to LPS-only treated group
Experimental: (§1) This in vitro experiment was performed to evaluate the ability of VD to suppress inflammatory responses. After extracting proteins from treated cells, the expression levels of inflammatory factors such as IL-6, iNOS, NLRP3, and TNF-α were analyzed by Western blotting. β-actin was used as an internal control for protein quantification. […] Accordingly, it may be concluded that VD affects both inflammatory and pro-inflammatory factors.

IL-6 = experiment: as above; type: cell-based; conditions: compared to LPS-only treated group
Experimental: as §1

iNOS = experiment: as above; type: cell-based; conditions: compared to LPS-only treated group
Experimental: as §1

[2] = tested on: dementia mouse model (5xFAD); experiment: Water maze experiment (cognitive function); type: in vivo
Excerpt: Latency to Target represents the time required to reach the target platform. As dementia progresses, cognitive function declines, leading to increased latency.
Occupancy in Target Quadrant refers to the extent to which the mice reached or remained in the quadrant containing the target. […] Number of Target Crossings represents the number of times the mice crossed the location of the target platform.

NLRP3 = experiment: Western blot of inflammatory factors in LPS-treated cells; type: cell-based; conditions: compared to LPS-only treated group
Experimental: as §1

BV2 cells [3] = experiment: Cell viability assay (CCK-8); type: cell-based, mouse; conditions: VD alone
Experimental: (§2) The cytotoxicity of the synthesized VD was evaluated through a cell viability assay. BV2 cells (normal mouse brain-derived cells) were used. The cells were cultured in a growth medium containing DMEM supplemented with 10% FBS (fetal bovine serum). The medium further contained 1% antibiotic-antimycotic solution, 1% insulin-transferrin-selenium, and 40 ng/mL dexamethasone, and the cells were incubated at 37°C in a humidified atmosphere containing 5% CO2. […] After maintaining the cells under serum-free conditions for 24 hours, subsequent incubation for 48 hours was performed using RPMI 1640 medium containing 10% FBS and […]. Thereafter, fresh complete medium containing Cell Counting Kit-8 (CCK-8) solution was added to the plate and incubated for 3 hours. Cell viability was measured by absorbance at 450 nm using a SpectraMax® i3 (Molecular Devices, CA, U.S.).

[4] = Cell viability assay (CCK-8); type: cell-based, mouse; conditions: mouse, bv2 cells, VD + additive propylene glycol (PG)
Experimental: as §2

[5] = biological target: T1, dopamine receptor 1 (D1R) (Mus musculus, UniProt Q61616); experiment: Protein-ligand interaction (CETSA); type: binding
T1 construct: endogenous in cells; BV2 inferred
Experimental: (§3) This experiment was conducted to identify the receptor targeted by VD. Dopamine receptors (D1-D5) are present on the membranes of neurons, microglia, and astrocytes. The study aimed to determine through which pathway VD exerts its anti-inflammatory effects. Since dopamine receptors are broadly classified into the D1-like and D2-like families, representative dopamine receptor 1 (D1R) and dopamine receptor 2 (D2R) were evaluated using CETSA.

[6] = biological target: T2, dopamine receptor 2 (D2R) (Mus musculus, UniProt P61168); experiment: Protein-ligand interaction (CETSA); type: binding
T2 construct: endogenous in cells; BV2 inferred
Experimental: as §3

[7] = tested on: Alzheimer's disease mouse model (5xFAD); experiment: Western blot of hippocampus and cerebral cortex proteins after IV treatment; type: in vivo
Experimental: This evaluation example was conducted to assess the effect of VD (vanillic acid-dopamine derivative) on the expression of specific proteins when administered to a 12-month-old Alzheimer's disease mouse model (5xFAD).
A total of 13 twelve-month-old 5xFAD mice were used in this experiment. The experiment was divided into three groups: (1) a normal wild-type group, (2) a dementia-induced group administered saline (5xFAD + saline), and (3) a dementia-induced group administered VD (5xFAD + VD). Each group received intravenous (IV) injections of the respective substance six times over a total period of 20 days. After completion of the treatment, the brains were harvested from the mice, and hippocampal tissue was isolated for further analysis. Protein expression of specific factors was evaluated using the hippocampal tissue. To extract proteins, the tissue was homogenized in RIPA buffer and centrifuged at 13,000 rpm for 15 minutes at 4°C. The supernatant was collected, and protein concentration was measured using a BCA protein assay kit. Equal amounts of protein were loaded onto 8.5% SDS-PAGE gels and transferred to an Immobilon-P membrane. The membranes were blocked with 3% bovine serum albumin (BSA) in Tris-buffered saline containing 0.05% Tween-20 (TBS-T) for 3 hours at room temperature. Thereafter, diluted primary antibodies were incubated overnight at 4°C in 3% BSA. The membranes were washed three times and then incubated with secondary antibodies for 1 hour. Western blot bands were detected using PicoEPD Western Reagent and SuperSignal™ West Femto Maximum Sensitivity Substrate, and images were captured using a chemiluminescent western imaging system. The obtained images were analyzed using ImageJ software.
FIGS. 14 and 15 show Western blot results analyzing changes in protein expression in the hippocampus and cerebral cortex, respectively, after treatment with VD (vanillic acid-dopamine derivative). These experiments were conducted using Alzheimer's disease model mice (5xFAD), and the expression levels of various inflammatory and neurodegeneration-related proteins were compared to evaluate the effect of VD. Both FIGS. 14 and 15 were conducted in two independent sets, with the left panels showing the results of the first set and the right panels showing the results of the second set.
This figure quantitatively evaluates the anti-inflammatory and neuroprotective effects of VD in Alzheimer's disease model mice (5xFAD). For this purpose, VD was administered to dementia model mice at two doses, 2 mg/kg and 4 mg/kg. The inflammatory and neurodegeneration-related factors analyzed in this experiment were as follows. NLRP3 is a protein complex acting as an inflammatory factor that plays an important role in regulating immune responses and inducing inflammation. BACE-1 (Beta-site Amyloid Precursor Protein Cleaving Enzyme 1) is an enzyme that cleaves amyloid precursor protein (APP) to generate β-amyloid. β-amyloid is one of the primary causative substances of Alzheimer's disease, and its accumulation is considered a key pathological feature of the disease. IBA-1 is a marker of microglial activation, indicating activation of microglia, which play a crucial role in immune and inflammatory responses in the brain. GFAP is a marker of astrocyte activation, and increased GFAP expression indicates activation of astrocytes. When astrocytes and microglia are activated, they secrete pro-inflammatory cytokines, thereby promoting inflammatory responses.

CREB = experiment: Western blot for CREB / pCREB in LPS-treated cells; type: cell-based; conditions: LPS 1000 ng/mL, 100 µM VD, with or without additive (PG)
Experimental: This experiment was performed to evaluate how VD regulates the CREB factor, which plays an important role in inflammatory signaling pathways. CREB (cAMP response element-binding protein) is a transcription factor that regulates various intracellular signaling pathways. When activated, CREB plays an important role in suppressing the NF-κB pathway. Since NF-κB is one of the major mediators of inflammatory responses, activation of CREB is closely associated with inflammation suppression. After inducing an inflammatory response in cells by treating them with LPS (1000 ng/mL), VD was subsequently administered at concentrations of 10 µM, 50 µM, and 100 µM. A group treated with both VD and the additive (propylene glycol, PG) was also included. Western blot analysis was then performed to examine the expression levels of CREB and its activated form, pCREB. β-actin was used as an internal control for protein quantification.

NF-κB = experiment: Western blot for pNF-κB in LPS-treated cells; type: cell-based; conditions: LPS 1000 ng/mL, 100 µM VD
Experimental: This experiment was conducted to evaluate how VD regulates the NF-κB pathway, which plays a critical role in inflammatory responses. NF-κB is a key transcription factor that regulates inflammatory responses, and when activated within cells, it promotes the expression of inflammatory cytokines. Therefore, inhibition of NF-κB activation may play an important role in suppressing inflammation. CREB acts upstream of the NF-κB pathway, and activation of CREB is associated with inhibition of the NF-κB pathway. Cells were treated with LPS (1000 ng/mL) to activate the NF-κB pathway and induce an inflammatory response, followed by treatment with VD at a concentration of 100 µM. A group treated with both VD and the additive (propylene glycol, PG) was also included for comparison. Western blot analysis was performed to examine the expression of pNF-κB, the activated form of NF-κB, and Lamin B was used as a control for nuclear protein quantification.

[8] = 2 mg/kg and 4 mg/kg, IV six times over 20 days

T1 sequence (Q61616 whole entry): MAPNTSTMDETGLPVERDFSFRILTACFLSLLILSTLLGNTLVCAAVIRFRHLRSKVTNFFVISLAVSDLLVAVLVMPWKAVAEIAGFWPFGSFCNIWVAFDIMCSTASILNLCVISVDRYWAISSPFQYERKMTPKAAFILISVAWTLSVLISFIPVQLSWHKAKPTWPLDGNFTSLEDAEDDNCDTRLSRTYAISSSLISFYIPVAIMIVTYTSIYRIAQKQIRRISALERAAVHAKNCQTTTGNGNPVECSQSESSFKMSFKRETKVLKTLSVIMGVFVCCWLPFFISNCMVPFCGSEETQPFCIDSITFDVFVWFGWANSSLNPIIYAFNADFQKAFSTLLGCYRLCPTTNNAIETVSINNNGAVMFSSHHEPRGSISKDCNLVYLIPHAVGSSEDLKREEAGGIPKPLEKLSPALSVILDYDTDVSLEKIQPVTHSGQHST
T2 sequence (P61168 whole entry): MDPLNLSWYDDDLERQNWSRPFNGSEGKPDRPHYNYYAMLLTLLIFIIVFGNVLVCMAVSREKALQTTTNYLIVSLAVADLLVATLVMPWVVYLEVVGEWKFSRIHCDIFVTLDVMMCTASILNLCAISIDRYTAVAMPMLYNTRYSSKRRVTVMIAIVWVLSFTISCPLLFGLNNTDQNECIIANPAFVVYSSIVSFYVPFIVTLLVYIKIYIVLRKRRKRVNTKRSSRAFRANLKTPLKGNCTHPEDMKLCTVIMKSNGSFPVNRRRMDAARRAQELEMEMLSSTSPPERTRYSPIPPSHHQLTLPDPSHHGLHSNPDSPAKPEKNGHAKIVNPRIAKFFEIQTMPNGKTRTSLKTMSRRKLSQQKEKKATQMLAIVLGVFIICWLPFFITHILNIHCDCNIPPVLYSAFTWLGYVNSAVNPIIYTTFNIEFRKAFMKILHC

COc1cc(C(=O)NCCc2ccc(O)c(O)c2)ccc1O [VD]
NO secretion (BV2 cells [1]): lower NO secretion | intensity of TNF-α (TNF-α): same pattern as NLRP3 | intensity of IL-6 (IL-6): same pattern as NLRP3 | intensity of iNOS (iNOS): same pattern as NLRP3 | Latency to Target ([2]; 4 mg/kg VD-treated group): most significant improvement | Number of Target Crossings ([2]; 4 mg/kg group vs untreated dementia mice): notably higher | Number of Target Crossings ([2]; VD-treated group vs untreated dementia mice): more frequently | Occupancy in Target Quadrant ([2]; VD-treated groups, particularly 4 mg/kg, vs untreated dementia mice): higher occupancy rate | Latency to Target ([2]; VD-treated vs untreated dementia mice): shorter | intensity of NLRP3 (NLRP3): effectively reduced | cell viability (cytotoxicity) (BV2 cells [3]; 0-100 µM): little to no cytotoxicity | cell viability (cytotoxicity) (BV2 cells [3]; 200 µM or more): slight cytotoxicity | viability at 100 µM ([4]; 100 µM): 84.7% | viability at 200 µM ([4]; 200 µM): 60.1% | viability at 400 µM ([4]; 400 µM): 43.1% | CETSA change in D1R [5]: a change was observed | CETSA change in D2R [6]: no significant change | expression of inflammatory cytokines [7]: reduced | expression of phosphorylated tau [7]: reduced | expression of β-amyloid [7]: reduced | expression of BACE-1 [7, 8]: suppressed | expression of GFAP [7, 8]: suppressed | expression of IBA-1 [7, 8]: suppressed | expression of NLRP3 [7, 8]: suppressed | pCREB/CREB ratio (CREB): significant increase | activation of NF-κB (pNF-κB) (NF-κB): significantly reduced
